As a reminder, the IC50 is the concentration that gives 50% inhibition.

Results on 37 compounds are retold here after patent US10301314B2, “Compounds and methods for the prevention and treatment of tumor metastasis and tumorigenesis” (The United States of America, as represented by the …, priority 2011, dated 2019).

The test system of assay [1] is PC3M cell line that stably expresses GFP-PTB to mark PNCs. The assay is described as follows: High content assay for PNC detection (reduction of PNC prevalence). Type of assay: cell-based, human. As to conditions: Table 4, PC3M GFP-PTB cells, 16 hrs incubation; for IC50: Homo sapiens, PC-3M. From the text: The quantitative output for this assay is the reduction of PNC prevalence. The PNC can be detected in living cells by the expression of a green fluorescent protein (GFP) tagged to the PNC localized protein, PTB. A PC3M cell line was used that stably expresses GFP-PTB to mark PNCs. This method eliminates the need for immunofluorescent staining.
The IN Cell Analyzer 1000 automated fluorescent imaging system (GE Healthcare, Piscataway, N.J.) was used for automated image acquisition. […] The instrument acquired images of each well in a 1536-well plate with a laser-based autofocus system. To score PNC prevalence in a high-content throughput, the Multi-Target Analysis (MTA) algorithm (GE Healthcare, Investigator v3.5) to identify individual cells and granules (PNCs) within these cells was used. The nucleus was segmented via a region growing method (50 μm^2 minimum area) with light shading and noise removal to allow “touching” nuclei to be separated. Granules in the nucleus (PNCs) were segmented using a multiscale top hat method, which measures granules of 1 to 2 μm in size and used a smart masking method to identify the boundaries of each segmented granule. The algorithm was optimized and validated using positive and negative controls (50 μM camptothecin and DMSO, respectively). In particular, the MTA algorithm allows for the identification of multiple subcellular compartments and organelles (or granules) within those compartments. In this instance, the algorithm's capability to identify objects within the same color channel that only differ in size or fluorescent intensity was utilized. Also, the algorithm allows for building complex hierarchical classification systems, using output measures within the algorithm to filter and define subpopulations. For this particular assay, PNC-positive cells were scored when 1 to 3 PNC granules were detected per nucleus. Cells that contained 0 granules were scored as PNC negative, and cells with >3 granules were assumed to be false positives (very few cells have more than 3 PNCs in one focus plane), and were also scored as PNC negative.

For assay [2], the system named is PC3M reporter cell line stably expressing the PTB-GFP. In words: ATP quantitation assay (ATPLite). The class given is cell-based, human. As to conditions: Homo sapiens, PC-3M, Table 4, PC3M cells, 24 hrs incubation. The procedure:
This follow-up assay was conducted to measure the effect of compounds on cell health by measuring ATP levels (ATPLite™). ATPLite™ is an ATP monitoring system based on firefly (Photinus pyralis) luciferase. The level of ATP in a metabolically active cell is a general marker for its viability. ATP levels are often reduced during necrosis or apoptosis. In this assay, the luciferase enzyme catalyzes the conversion of the added substrate D-luciferin to oxyluciferin and light with ATP. Thus, the emitted light is proportional to the ATP concentration. For this assay, the highly metastatic PC3M reporter cell line stably expressing the PTB-GFP was provided by Professor Sui Huang of Northwestern University. The media and cell culture reagents were purchased from Invitrogen (Carlsbad, Calif.), ATPLite™ came from PerkinElmer.

Take `N=c1c2c(-c3ccccc3)c(-c3ccccc3)n(Cc3ccco3)c2ncn1CCN1CCOCC1` [Compound 50]: the “PNC IC50(μM)” value in assay [1] was “inactive”. In addition, in assay [2], the 50% inhibitory concentration (IC50) is 32.4 µM.
Take `COC(=O)c1cccc(Cn2cnc3c(c(-c4ccccc4)c(-c4ccccc4)n3CCc3ccccc3)c2=N)c1` [Compound 53]: the IC50 in assay [1] turned out to be 29.6 µM; in assay [2] it was 24.1 µM.
Consider `CO[C@H]1CC[C@H](n2cnc3c(c(-c4ccccc4)c(-c4ccccc4)n3Cc3ccccc3)c2=N)CC1` [Compound 56], for which the values for the IC50 in assay [1] and in assay [2] were 0.009 µM and 19.2 µM, respectively.
As for `N=c1c2c(-c3ccccc3)c(-c3ccccc3)n(Cc3ccc(S(N)(=O)=O)cc3)c2ncn1C1CCOCC1` [Compound 57], the results for the IC50 in assay [1] and in assay [2] were 0.059 µM and 96.1 µM, respectively.
For `COc1ccc(Cn2c(-c3ccccc3)c(-c3ccccc3)c3c(=N)n([C@H]4CC[C@H](O)CC4)cnc32)cc1` [Compound 58], in that order: 0.118 µM and 24.1 µM.
The like results for `COc1ccc(Cn2c(-c3ccccc3)c(-c3ccccc3)c3c(=N)n(C4CCOCC4)cnc32)cc1` [Compound 59] were, in that order, 0.118 µM and 24.1 µM.
On to `N=c1c2c(-c3ccccc3)c(-c3ccccc3)n(CC3CCCCC3)c2ncn1C1CCOCC1` [Compound 60], for which the values for the IC50 in assay [1] and in assay [2] were 0.118 µM and 24.1 µM, respectively.
For `N=c1c2c(-c3ccccc3)c(-c3ccccc3)n(Cc3ccccc3)c2ncn1CCC1CCC(O)CC1` (centres unmarked) [Compound 61], in that order: 0.118 µM and 24.1 µM.
For `N=c1c2c(-c3ccccc3)c(-c3ccccc3)n(CCc3ccccc3)c2ncn1C[C@H]1CCCC[C@@H]1O` [Compound 62], in that order: 0.148 µM and 24.1 µM.
The like results for `N=c1c2c(-c3ccccc3)c(-c3ccccc3)n(Cc3ccccc3)c2ncn1C1CCCC[C@H]1O` (some centres unmarked) [Compound 63] were, in that order, 0.148 µM and 19.2 µM.
Consider `N=c1c2c(-c3ccccc3)c(-c3ccccc3)n(CC3CC3)c2ncn1C1CCOCC1` [Compound 64], for which the IC50 in assay [1] worked out at 0.187 µM; in assay [2] it was 38.3 µM.
For `CO[C@H]1CC[C@H](n2cnc3c(c(-c4ccccc4)c(-c4ccccc4)n3CCc3ccccc3)c2=N)CC1` [Compound 65], the IC50 in assay [1] turned out to be 0.235 µM; in assay [2], 19.2 µM.
For `N=c1c2c(-c3ccccc3)c(-c3ccccc3)n(Cc3ccccc3)c2ncn1C1CCCC[C@H]1CO` (some centres unmarked) [Compound 66], in that order: 0.296 µM and 76.4 µM.
For `N=c1c2c(-c3ccccc3)c(-c3ccccc3)n(CCc3ccccc3)c2ncn1CCC1CCC(O)CC1` (centres unmarked) [Compound 67], in that order: 0.296 µM and 24.1 µM.
Turning to `N=c1c2c(-c3ccccc3)c(-c3ccccc3)n(CCc3ccccc3)c2ncn1C1CCCC[C@H]1O` (some centres unmarked) [Compound 68], the IC50 in assay [1] stood at 0.296 µM; in assay [2], 38.3 µM.
For `CO[C@H]1CC[C@H](n2cnc3c(c(-c4ccccc4)c(-c4ccccc4)n3Cc3ccc(OC(F)(F)F)cc3)c2=N)CC1` [Compound 69], in that order: 0.372 µM and 19.2 µM.
With `N=c1c2c(-c3ccccc3)c(-c3ccccc3)n(Cc3ccc(OC(F)(F)F)cc3)c2ncn1[C@H]1CC[C@H](O)CC1` [Compound 70], the IC50 in assay [1] worked out at 0.372 µM; in assay [2] it was 24.1 µM.
For `N=c1c2c(-c3ccccc3)c(-c3ccccc3)n(CCc3ccccc3)c2ncn1C1CCOCC1` [Compound 71], in that order: 0.372 µM and 121 µM.
The like results for `N=c1c2c(-c3ccccc3)c(-c3ccccc3)n(Cc3ccccc3)c2ncn1CCNc1ccncc1` [Compound 72] were, in that order, 0.469 µM and 24.1 µM.
The like results for `N=c1c2c(-c3ccccc3)c(-c3ccccc3)n(Cc3ccccc3)c2ncn1C[C@@H]1CCCC[C@H]1O` [Compound 73] were, in that order, 0.59 µM and 24.1 µM.
On to `N=c1c2c(-c3ccccc3)c(-c3ccccc3)n(Cc3ccc(OC(F)(F)F)cc3)c2ncn1CCCO` [Compound 74], for which the IC50 turned out to be 0.743 µM in assay [1] and 24.1 µM in assay [2].
For `N=c1c2c(-c3ccccc3)c(-c3ccccc3)n(Cc3ccc(OC(F)(F)F)cc3)c2ncn1C1CCOCC1` [Compound 75], in that order: 0.935 µM and 24.1 µM.
For `COc1ccc(Cn2c(-c3ccccc3)c(-c3ccccc3)c3c(=N)n(CC4CCOCC4)cnc32)cc1` [Compound 76], in that order: 0.935 µM and 48.2 µM.
The like results for `COc1ccc(Cn2c(-c3ccccc3)c(-c3ccccc3)c3c(=N)n(CCCO)cnc32)cc1` [Compound 77] were, in that order, 1.18 µM and 96.1 µM.
In the case of `N=c1c2c(-c3ccccc3)c(-c3ccccc3)n(CC3CCCCC3)c2ncn1[C@H]1CC[C@H](O)CC1` [Compound 78], the IC50 worked out at 1.48 µM in assay [1] and 30.4 µM in assay [2].
The like results for `N=c1c2c(-c3ccccc3)c(-c3ccccc3)n(Cc3ccc(S(N)(=O)=O)cc3)c2ncn1CC1CCOCC1` [Compound 79] were, in that order, 1.87 µM and 383 µM.
With `N=c1c2c(-c3ccccc3)c(-c3ccccc3)n(CC3CCCCC3)c2ncn1C1CCCC[C@H]1O` (some centres unmarked) [Compound 80], the IC50 worked out at 1.87 µM in assay [1] and 21.5 µM in assay [2].
The like results for `N=c1c2c(-c3ccccc3)c(-c3ccccc3)n(CC3CC3)c2ncn1CCCO` [Compound 81] were, in that order, 1.87 µM and 76.4 µM.
The like results for `N=c1c2c(-c3ccccc3)cn(Cc3ccccc3)c2ncn1C1CCN(Cc2ccccc2)CC1` [Compound 82] were, in that order, 2.35 µM and 30.4 µM.
The like results for `C[C@H]([C@@H](O)c1ccccc1)n1cnc2c(c(-c3ccccc3)c(-c3ccccc3)n2Cc2ccccc2)c1=N` [Compound 83] were, in that order, 2.96 µM and 24.1 µM.
On to `N=c1c2c(-c3ccccc3)c(-c3ccccc3)n(Cc3ccc(OC(F)(F)F)cc3)c2ncn1[C@H]1CC[C@@H](O)CC1` [Compound 84], for which the IC50 worked out at 2.96 µM in assay [1] and 24.1 µM in assay [2].
The like results for `N=c1c2c(-c3ccccc3)c(-c3ccccc3)n(Cc3ccccc3)c2ncn1CC1CCOC1` (centres unmarked) [Compound 85] were, in that order, 2.96 µM and 24.1 µM.
The like results for `N=c1c2c(-c3ccccc3)c(-c3ccccc3)n(CC3CCCCC3)c2ncn1[C@H]1CC[C@@H](O)CC1` [Compound 86] were, in that order, 3.72 µM and 24.1 µM.
For `N=c1c2c(-c3ccccc3)c(-c3ccccc3)n(CCc3ccccc3)c2ncn1CC1CCOC1` (centres unmarked) [Compound 87], in that order: 4.69 µM and 60.7 µM.
With `N=c1c2c(-c3ccccc3)c(-c3ccccc3)n(Cc3ccccc3)c2ncn1CC1CCOCC1` [Compound 88], the figures for the IC50 in assay [1] and in assay [2] were 4.69 µM and 30.4 µM, respectively.
The like results for `N=c1c2c(-c3ccc4c(c3)OCO4)c(-c3ccc4c(c3)OCO4)n(Cc3ccccc3)c2ncn1C1CCOCC1` [Compound 89] were, in that order, 5.9 µM and 24.1 µM.
In the case of `N=c1c2c(-c3ccccc3)c(-c3ccccc3)n(CCc3ccccc3)c2ncn1CC1CCOCC1` [Compound 90], the IC50 in assay [1] was 5.9 µM; in assay [2] it was 76.4 µM.
